According to patent US20060241178A1, “Compositions and methods for treating lung cancer” (priority 2002, published 2006):
Entries after “also recorded” stand apart in the source; their conditions may differ. Read-outs that look alike come from different tables or passages of the source. Marks after values point to notes of the source that are not given here.

How the values were obtained:
[1] = test system: NNK/B(a)P-induced lung adenomas and adenocarcinomas; conditions: for mean numbers of lung adenomas compared with carcinogen control mice: at termination; for Adenocarcinoma Incidence (%) / Adenocarcinoma Multiplicity mean ± SD / Adenoma Incidence (%) / Adenoma Multiplicity mean ± SD: preliminary
Method: The test compounds were given in the diet on week 21 after beginning of a weekly dose of a mixture of NNK/B(a)P: 3 μmol each (621 μg NNK and 756 μg B(a)P) in 0.1 ml cottonseed oil for eight weeks (a total of 8 doses) (groups 1 to 10); only vehicle (cottonseed oil) for groups 11 to 15. Animals were then given experimental diet for 20 weeks until week 40. Four mice in groups 1, 2, 4, 6, 8, and 10 (see Table 1) were sacrificed on weeks 20, 38, and 40. The bioassay was terminated on week 52. If sufficient numbers of tumors were developed in mice killed on week 40, the bioassay was terminated at week 40. Tumors (adenomas and carcinomas) were quantified by multiplicity and incidence. At sacrifice, livers and lungs were harvested and the tissues rinsed in autoclaved PBS, stored in labeled foil, and snap frozen in liquid nitrogen. These tissues both tumorous and non-tumorous were processed by histology for biomarker studies (TUNEL, PCNA,p53, […] kinases, etc.). Lungs were examined by histology at termination (52 week or 40 week) for adenomas and carcinomas).
In this study, the potential protective effects of ITCs and ITC-NACs against progression of lung adenomas to malignant tumors were investigated. Lung tumors were induced in A/J mice with 3 μmol B(a)P plus 3 μmol NNK (gavage once/wk, 8 wks); mice were maintained on AIN-76A semi-purified diets. […] Diets containing PEITC (phenethyl ITC) or SFN (sulforaphane), each at 3 mmol/kg and 1.5 mmol/kg diet; PEITC-NAC or SFN-NAC at 8 mmol/kg and 4 mmol/kg diet; and NAC at 8 mmol/kg diet were then provided to groups of 28 mice (high dose) or 20 mice (low dose) during weeks 20 to 40 after initiation. Four mice in each high dose treatment group were killed during weeks 28 and 40 to monitor tumor incidence and progression; lung tissues were used for molecular studies. Remaining mice were killed at 40 weeks for histopathological examination. […] To assess molecular events occurring during the treatments, lung RNA of mice treated with B(a)P+NNK/control diet and B(a)P+NNK/PEITC-NAC high dose diet was examined using a Mouse Cancer Pathway Finder Gene Array.

[2] = test system: AP-1 binding activity in A549 cells; experiment: EMSA of AP-1 binding activity in A549 cells; assay type: cell-based, human; parameters: AP-1 binding activity: dose or concentration left out as unconfirmed; conditions: for 24 h
Method: Cell Lines: The human lung adenocarcinoma cell line A549 was obtained from the American Type Culture Collection (ATCC) (Bethesda, Md.). […] Cells were grown at 37° C. with 5% CO2.
Reagents: The PEITC was obtained from Aldrich (Milwaukee, Wis.) and its N-acetylcysteine conjugate was synthesized in house by the Organic Synthesis Facility using the method described previously (Kassahun et al., Chem Res Toxicol 1997, 10(11):1228-33). Unless specified otherwise, the A549 cells were treated with 10 or 25 μM of PEITC-NAC. TPA (12-O-tetradecanoylphorbol-13-acetate) was purchased from Sigma (St. Louis, Mo.).
Electrophoretic Mobility Shift Assay (EMSA): Double-stranded oligonucleotides containing the consensus-binding site for AP-1 were purchased commercially (Santa Cruz Biotech). The oligos were labeled with γ-^32P-ATP (6000 Ci/mmol, Armeshem Pharmacia Biotech. Inc Piscataway, N.J.) using polynucleotide kinase (Promega, Madison, Wis.) according to standard procedures. The labeled DNA was incubated with 5 μg of total proteins (as specified in the Results section) for 10 min at room temperature, in the presence of 1 μg of poly d(I)-d(C) oligomer (Roche Molecular Biochemicals, Indianapolis, Ind.) and DNA-binding buffer as described previously (Yang et al., Cell Growth Differ 1993, 4(7):595-602). The complexes were then separated on a 7.5% polyacrylamide gel and autoradiographed.
Proteins Isolation: Cells were incubated in a 37° C. with 5% CO2, followed by mock or treatments specified in the results section. Total proteins were then isolated using RIPA buffer. The protease inhibitors aprotinin (1 μg/ml), leupeptin (1 μg/ml), pepstatin (1 μg/ml), phenylmethylsulfonyl fluoride (0.1 mM) and the phosphatase inhibitor Na3VO4 (1 mM), NaF (1 mM) were added to all buffers. The protein concentrations were determined using the Coomassie Plus Protein Assay Reagent (Pierce, Rockford, Ill.), and aliquots of the proteins were stored at −80° C.

A549 cells = experiment: Apoptosis in A549 cells treated with TPA, PEITC-NAC or TPA plus PEITC-NAC (photography, DAPI staining); assay type: cell-based, human; conditions: 100 nM TPA
Text: Assay for single cell DNA strand breaks: A549 cells treated with or without TPA, PEITC-NAC or TPA plus PEITC-NAC were collected at the times specified in the text, cytocentrifuged and stained with 4′-6′diamidino-2-phenylindole (DAPI). The photographs were taken using an Olympus AX 70 microscope (Melville, N.Y.) with fluorescence and SPOT RT Slider digital image system (Diagnostic Instruments Inc., Sterling Heights, Mich.). Arrows indicated the typical apoptotic features of DNA strand breakage and nuclear fragmentation.
TPA (100 nM) was added to A549 cells 12 h prior to addition of PEITC-NAC, which was added 24 h before photography of cells, protein isolation, or DAPI staining. […] These cells were treated identically, but were stained with the DNA fluorochrome DAPI.

[3] = test system: B(a)P-induced lung adenoma; experiment: Tumor bioassay: B(a)P-induced lung tumorigenesis, ITC-NAC conjugates in diet during post-initiation phase
Method: The ITC conjugates were incorporated (15 μmol/g diet) into AIN-76A diets (5% corn oil) by mixing with dextrose prior to diet preparation. The conjugates, 9.36 g BITC-NAC (15 mmol) or 9.79 g PEITC-NAC (15 mmol), were dissolved in 50 ml ethyl acetate, and then mixed with 200 g dextrose to ensure even coating of dextrose particles. After mixing with dextrose, the solvent was removed using a rotary evaporator and further dried using a vacuum pump (2-3 h). Diets were prepared in 1-2 kg batches, and were stored at 4° C. in a container purged with nitrogen. […] Stability was determined by extraction of 0.5 g portions of the diet with 2.5 ml methanol (2×). The methanol extracts were combined and a 1 ml aliquot was filtered using a 0.47 μm syringe filter. A 10 μl sample was then analyzed on HPLC (Jiao, et al., Chem. Res. Toxicol., 9: 932-938, 1996).
Tumor Bioassay: Female strain A mice (Jackson Laboratories, Bar Harbor, Me.) of four weeks of age were housed under quarantine in polycarbonate cages (5 mice/cage) and provided modified AIN 76A diet (5% corn oil) and acidified drinking water ad libitum. The mice were maintained on a 12 h light: 12 h dark regimen at 22±5° C. and 50±20% relative humidity. After one week, the mice were weighed, and distributed into four groups containing 30 to 35 mice on the basis of body weight. At seven weeks of age, the mice in groups 1-3 were gavaged with a single dose of 20 μmol B(a)P in 0.2 ml cottonseed oil; group 4 received the vehicle only. Two days after dosing with the carcinogen, diets containing BITC-NAC (15 μmol/g, Group 2) and PEITC-NAC (15 μmol/g, Group 3) were provided. Groups 1 (B[a]P control) and 4 (vehicle only) remained on the modified AIN-76A diet with 5% corn oil. Tap water was provided ad libitum during the course of the bioassay. Mice were observed daily; diets were replenished on the fourth day of the week, and completely replaced on the seventh day. Mice were weighed weekly for four weeks, then monthly and at termination. At 84 days after B(a)P dosing, four mice per group were killed (CO2, cervical dislocation) to harvest lung tissues for molecular and immunohistochemical studies and to quantify lung adenomas, if present. At 140 days after B(a)P, the remaining mice in each group were killed. The number of lung tumors was recorded; lobes of lungs were placed in 10% phosphate buffered formalin for histological and immunohistochemical analysis. The remaining lung lobes were snap frozen in liquid nitrogen.
Mean tumor multiplicity and body weights at each time point were compared between groups using Student's T test.

[4] = test system: alveolar epithelium cells of lung; experiment: In situ end-labeling (ISEL/TUNEL) of apoptosis in lung sections; assay type: in vivo, A/J mice
[5] = Stability of conjugates in AIN-76A diet (methanol extraction, HPLC); assay type: physicochemical; conditions: stored at 4° C. under nitrogen
Method: The ITC conjugates were incorporated (15 μmol/g diet) into AIN-76A diets (5% corn oil) by mixing with dextrose prior to diet preparation. […] After mixing with dextrose, the solvent was removed using a rotary evaporator and further dried using a vacuum pump (2-3 h). Diets were prepared in 1-2 kg batches, and were stored at 4° C. in a container purged with nitrogen. […] Stability was determined by extraction of 0.5 g portions of the diet with 2.5 ml methanol (2×). The methanol extracts were combined and a 1 ml aliquot was filtered using a 0.47 μm syringe filter.

JNK 1 and 2 = experiment: Western blot of lung total proteins: JNK phosphorylation; assay type: in vivo, A/J mice; conditions: lung tissue 21 days after B(a)P
p53 [6] = experiment: Western blot of lung proteins: p53 expression and phosphorylation; assay type: in vivo, A/J mice; conditions: lungs at termination of the bioassay
[7] = test system: aberrant crypt foci in the colon; conditions: oral, after or independent of timing of azoxymethane; cited from earlier work
[8] = test system: p53 (−/−) mouse embryo fibroblasts; conditions: cited from earlier work
p53 [9] = conditions: mouse epidermal cell line, with accompanying apoptosis; cited from earlier work
[10] = high dose (3 or 8 mmol/kg diet)
[11] = high dose (PEITC, SFN 3 mmol/kg diet; PEITC-NAC, SFN-NAC, NAC 8 mmol/kg diet)
[12] = low dose (1.5 or 4 mmol/kg diet)
[13] = low dose (PEITC, SFN 1.5 mmol/kg diet; PEITC-NAC, SFN-NAC 4 mmol/kg diet)

For `CC(=O)NC(CSC(=S)NCCCC[S+](C)[O-])C(=O)O` (centres unmarked) [SFN-NAC, sulforaphane-NAC], the “mean numbers of lung adenomas compared with carcinogen control mice” value [1] was “decreases were significant”, the “Adenocarcinoma Incidence (%)” value [1, 10] was 5/31 (16.13%) and the “Adenocarcinoma Multiplicity mean ± SD” value [1, 10] was 0.42 ± 1.01. For the same compound, the “Adenoma Incidence (%)” value [1, 10] was 31/31 (100%), the “Adenoma Multiplicity mean ± SD” value [1, 11] was 9.06 ± 5.35 and the “Adenocarcinoma Incidence (%)” value [1, 12] was 2/19 (10.53%). For the same compound, the “Adenocarcinoma Multiplicity mean ± SD” value [1, 12] was 0.32 ± 0.92, the “Adenoma Incidence (%)” value [1, 12] was 18/19 (94.74%) and the “Adenoma Multiplicity mean ± SD” value [1, 13] was 8.53 ± 4.32.
For `CC(=O)N[C@@H](CS)C(=O)O` [NAC, N-acetyl-L-cysteine], the “mean numbers of lung adenomas compared with carcinogen control mice” value [1] was “decreases were significant”, the “Adenocarcinoma Incidence (%)” value [1, 10] was 4/8 (50%) and the “Adenocarcinoma Multiplicity mean ± SD” value [1, 10] was 1.10 ± 1.51. For the same compound, the “Adenoma Incidence (%)” value [1, 10] was 8/8 (100%).
In the case of `CCCCCCCCCCCCCC(=O)O[C@@H]1[C@@H](C)[C@@]2(O)[C@@H](C=C(CO)C[C@]3(O)C(=O)C(C)=C[C@@H]23)[C@@H]2C(C)(C)[C@]12OC(C)=O` [TPA, 12-O-tetradecanoylphorbol-13-acetate], the AP-1 binding activity [2] is reported as “specifically induced” and the “cell growth / apoptosis with TPA alone” value (A549 cells) is reported as “appear to be growing well; also recorded: did not cause apoptosis in A549 cells”.
In the case of `CC(=O)N[C@@H](CSC(=S)NCc1ccccc1)C(=O)O` [BITC-NAC, benzyl isothiocyanate-NAC], the “tumor multiplicity” value ([3]; 15 μmol/g diet after B(a)P, at termination, B(a)P control 6.1±3.1) is reported as 3.7±2.9 tumors/mouse, the “Tumor Incidence (%), lung adenoma” value ([3]; 15 μmol/g diet from 2 days after 20 μmol B(a)P, 140 days) is reported as 94% and the “Tumor multiplicity (no. of tumors/mice), lung adenoma” value ([3]; 15 μmol/g diet from 2 days after 20 μmol B(a)P, 140 days, mean ± SD) is reported as 3.72 ± 2.90^b no. of tumors/mice. For the same compound, the “average body weight at termination” value ([3]; 15 μmol/g diet, controls 25.8 g and 25.7 g) was 22.9 g, the tumor reduction ([3]; versus B(a)P control diet group, at termination) was 39% and the “increase in apoptosis, non-tumorous lung tissue” value ([4]; after 140 days) was 2.4 fold. For the same compound, the “apoptotic index, fold elevation” value ([4]; lung tissue at 84 days, before tumors appeared) was “approximately 2 fold”, the stability in diet [5] was “stable for at least one month” and the “JNK 1 (p46) phosphorylation level” value (JNK 1 and 2) was “increase”. For the same compound, the “JNK 2 (p54) phosphorylation” value (JNK 1 and 2) was “only slightly induced” and the “phosphorylation of p53 at Ser15” value (p53 [6]) was “moderate increase”.
In the case of `C[S+]([O-])CCCCN=C=S` (centres unmarked) [SFN, sulforaphane], the “aberrant crypt foci formation” value [7] is given as “inhibited foci formation”, the “Adenocarcinoma Incidence (%)” value [1, 10] is given as 10/32 (31.3%) and the “Adenocarcinoma Multiplicity mean ± SD” value [1, 10] is given as 0.84 ± 1.48. For the same compound, the “Adenoma Incidence (%)” value [1, 10] was 30/32 (93.8%), the “Adenoma Multiplicity mean ± SD” value [1, 11] was 8.84 ± 5.72 and the “Adenocarcinoma Incidence (%)” value [1, 12] was 4/20 (20%). The “Adenocarcinoma Multiplicity mean ± SD” value [1, 12] was 0.30 ± 0.64, the “Adenoma Incidence (%)” value [1, 12] was 20/20 (100%) and the “Adenoma Multiplicity mean ± SD” value [1, 13] was 9.25 ± 4.15. It also gave a malignant tumor multiplicity ([1]; low dose groups, initiated control group 2.1) of 0.9 tumors/mouse.
For `S=C=NCCc1ccccc1` [PEITC, phenethyl isothiocyanate], the induction of apoptosis [8] is given as “did not induce apoptosis”, the p53 transactivation (p53 [9]) is given as “induces p53 transactivation in a dose- and time-dependent manner” and the “aberrant crypt foci formation” value [7] is given as “inhibited foci formation”. For the same compound, the “Adenocarcinoma Incidence (%)” value [1, 10] was 6/32 (19%)*, the “Adenoma Incidence (%)” value [1, 10] was 31/32 (96.90%) and the “Adenoma Multiplicity mean ± SD” value [1, 11] was 8.81 ± 3.96. The “Overall % Survival” value ([1]; high dose, adjusted for scheduled sacrifices, control 29.8%) was 21.10%, the “Adenocarcinoma Incidence (%)” value [1, 12] was 7/20 (35%) and the “Adenocarcinoma Multiplicity mean ± SD” value [1, 12] was 1.15 ± 1.85. For the same compound, the “Adenoma Incidence (%)” value [1, 12] was 19/20 (95%) and the “Adenoma Multiplicity mean ± SD” value [1, 13] was 7.25 ± 4.43.
